Test results reported in the supplement of paper PMC11962398.

Key:
[1] = compound: T1, C[C@H]1CNCCN1c1nccc(-c2noc3c2CCC[C@@]32CCCc3sc(N)c(C#N)c32)n1 [BI-2493]; details: 5 days
Method: (§1)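 PRISM pooled barcoded cancer cell line viability screen (Broad Institute) with BI-2493 at 8 doses in threefold dilutions from 0.00457 to 10 µmol/L, 5-day treatment; curves fitted per cell line. IC50 is undefined (placeholder) for resistant lines. AUC is capped at 1, and sensitivity is reported as 1 − AUC.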

[2] = compound: T1, BI-2493; assay: 1 - AUC of viability dose-response curve (sensitivity) (fraction); higher = more sensitive; details: 5 days
Method: as §1

## ACCMESO1_PLEURA
[1]
  IC50 of cell viability: 9.66 µM
[2]
  1 - AUC of viability dose-response curve: 0.00668

## ACHN_KIDNEY
[1]
  IC50 of cell viability: 6.46 µM
[2]
  1 - AUC of viability dose-response curve: 0.133

## AGS_STOMACH
[1]
  IC50 of cell viability: 0.844 µM
[2]
  1 - AUC of viability dose-response curve: 0.313

## ALLSIL_HAEMATOPOIETIC_AND_LYMPHOID_TISSUE
[1]
  IC50 of cell viability: 9.13 µM
[2]
  1 - AUC of viability dose-response curve: 0.033

## AM38_CENTRAL_NERVOUS_SYSTEM
[1]
  IC50 of cell viability: 4.3 µM
[2]
  1 - AUC of viability dose-response curve: 0.101

## AMO1_HAEMATOPOIETIC_AND_LYMPHOID_TISSUE
[1]
  IC50 of cell viability: 5.6 µM
[2]
  1 - AUC of viability dose-response curve: 0.088

## AN3CA_ENDOMETRIUM
[1]
  IC50 of cell viability: 4.74 µM
[2]
  1 - AUC of viability dose-response curve: 0.142

## ANGMCSS_CENTRAL_NERVOUS_SYSTEM
[1]
  IC50 of cell viability: > 10 µM
[2]
  1 - AUC of viability dose-response curve: 0.0225

## ASPC1_PANCREAS
[1]
  IC50 of cell viability: 2.11 µM
[2]
  1 - AUC of viability dose-response curve: 0.32

## AU565_BREAST
[1]
  IC50 of cell viability: 6.01 µM
[2]
  1 - AUC of viability dose-response curve: 0.0935

## BC3C_URINARY_TRACT
[1]
  IC50 of cell viability: 5.1 µM
[2]
  1 - AUC of viability dose-response curve: 0.193

## BCPAP_THYROID
[1]
  IC50 of cell viability: 6.5 µM
[2]
  1 - AUC of viability dose-response curve: 0.0703

## BDCM_HAEMATOPOIETIC_AND_LYMPHOID_TISSUE
[1]
  IC50 of cell viability: > 10 µM
[2]
  1 - AUC of viability dose-response curve: 0.0903

## BECKER_CENTRAL_NERVOUS_SYSTEM
[1]
  IC50 of cell viability: 9.55 µM
[2]
  1 - AUC of viability dose-response curve: 0.00973

## BEN_LUNG
[1]
  IC50 of cell viability: 1.62 µM
[2]
  1 - AUC of viability dose-response curve: 0.264

## BFTC905_URINARY_TRACT
[1]
  IC50 of cell viability: 6.41 µM
[2]
  1 - AUC of viability dose-response curve: 0.114

## BFTC909_KIDNEY
[1]
  IC50 of cell viability: 6.33 µM
[2]
  1 - AUC of viability dose-response curve: 0.0855

## BHT101_THYROID
[1]
  IC50 of cell viability: 7.97 µM
[2]
  1 - AUC of viability dose-response curve: 0.0404

## BHY_UPPER_AERODIGESTIVE_TRACT
[1]
  IC50 of cell viability: 5.93 µM
[2]
  1 - AUC of viability dose-response curve: 0.0642

## BICR6_UPPER_AERODIGESTIVE_TRACT
[1]
  IC50 of cell viability: 4 µM
[2]
  1 - AUC of viability dose-response curve: 0.178

## BICR16_UPPER_AERODIGESTIVE_TRACT
[1]
  IC50 of cell viability: 5.24 µM
[2]
  1 - AUC of viability dose-response curve: 0.263

## BICR18_UPPER_AERODIGESTIVE_TRACT
[1]
  IC50 of cell viability: 4.16 µM
[2]
  1 - AUC of viability dose-response curve: 0.147

## BICR22_UPPER_AERODIGESTIVE_TRACT
[1]
  IC50 of cell viability: 4.66 µM
[2]
  1 - AUC of viability dose-response curve: 0.137

## BICR31_UPPER_AERODIGESTIVE_TRACT
[1]
  IC50 of cell viability: 6.97 µM
[2]
  1 - AUC of viability dose-response curve: 0.0764

## BICR56_UPPER_AERODIGESTIVE_TRACT
[1]
  IC50 of cell viability: 4.72 µM
[2]
  1 - AUC of viability dose-response curve: 0.152

## BICR78_UPPER_AERODIGESTIVE_TRACT
[1]
  IC50 of cell viability: 5.51 µM
[2]
  1 - AUC of viability dose-response curve: 0.173

## BL2_HAEMATOPOIETIC_AND_LYMPHOID_TISSUE
[1]
  IC50 of cell viability: 4.45 µM
[2]
  1 - AUC of viability dose-response curve: 0.183

## BLUE1_HAEMATOPOIETIC_AND_LYMPHOID_TISSUE
[1]
  IC50 of cell viability: 3.33 µM
[2]
  1 - AUC of viability dose-response curve: 0.129

## BOKU_CERVIX
[1]
  IC50 of cell viability: > 10 µM
[2]
  1 - AUC of viability dose-response curve: 0.119

## BONNA12_HAEMATOPOIETIC_AND_LYMPHOID_TISSUE
[1]
  IC50 of cell viability: > 10 µM
[2]
  1 - AUC of viability dose-response curve: 0.117

## BT12_SOFT_TISSUE
[1]
  IC50 of cell viability: 5.51 µM
[2]
  1 - AUC of viability dose-response curve: 0.17

## BT16_SOFT_TISSUE
[1]
  IC50 of cell viability: > 10 µM
[2]
  1 - AUC of viability dose-response curve: 0.189

## BT474_BREAST
[1]
  IC50 of cell viability: 9.18 µM
[2]
  1 - AUC of viability dose-response curve: 0.0542

## BT549_BREAST
[1]
  IC50 of cell viability: 8.89 µM
[2]
  1 - AUC of viability dose-response curve: 0.0828

## BV173_HAEMATOPOIETIC_AND_LYMPHOID_TISSUE
[1]
  IC50 of cell viability: 1.67 µM
[2]
  1 - AUC of viability dose-response curve: 0.344

## BXPC3_PANCREAS
[1]
  IC50 of cell viability: > 10 µM
[2]
  1 - AUC of viability dose-response curve: 0.0507

## C4I_CERVIX
[1]
  IC50 of cell viability: 3.49 µM
[2]
  1 - AUC of viability dose-response curve: 0.154

## C32_SKIN
[1]
  IC50 of cell viability: 9.25 µM
[2]
  1 - AUC of viability dose-response curve: 0.0594
